# Columns and labels:
# [1] = FRAP of NBD-cholesterol in synthetic membrane monolayers; conditions: PC SUV derived monolayers, 20% cholesterol, 2% NBD-cholesterol
# Text: CBD's ability to affect cholesterol orientation in both synthetic and cell derived ER membranes implies that CBD may contribute to increased lipid order. The ability of cholesterol oxidase assays to reveal alterations in lipid order has been previously reported in studies noting that cholesterol oxidase can preferentially target caveolar domains, which are ordered lipid domains. Another hallmark of lipid order is a decrease in lateral diffusion of lipids. As a result, the present inventors aimed to measure CBD's ability to perturb the lateral diffusion of fluorescently labelled cholesterol (NBD-cholesterol) in synthetic membranes. The present inventors deposited PC SUVs containing 20% moles of cholesterol and 2% moles NBD-cholesterol on glass-bottom multi-well imaging plates, followed by ultra-sonification to construct fluorescently labelled membrane monolayers. Using these monolayers and confocal microscopy, the inventor's performed fluorescence recovery after photobleaching (FRAP) experiments to measure the kinetics of recovery of fluorescent cholesterol. […] This effect of CBD on lateral diffusion could be rescued with simultaneous treatment with the lipid disordering agent DHA (FIGS. 6G, I). There are two proposed models for how DHA affects cholesterol in membranes. […]
# SK-N-BE(2) cells = assay: 13C glucose labelled lipidomics of cholesterol biosynthesis; assay type: cell-based, human; conditions: 20 μM CBD, 24 hours
# Procedure: These findings raise the question of whether CBD treatment leads to alterations in lipid and cholesterol metabolism (the latter pathway depicted in FIG. 3A). The present inventors used mass spectrometry-based lipidomics, a subset of metabolomics, to quantify the effect of CBD on the fluxes of key lipids and sterols. Vehicle and CBD exposed cells were fed ^13C labeled glucose for 24 hours and harvested using methanol extraction and mass spectrometry analysis. Cholesterol biosynthesis was analyzed by determining the level of incorporation of ^13C into biosynthetic intermediates. […] The effect of CBD on total cellular cholesterol was confirmed using a fluorogenic assay for cholesterol in an orthogonal experiment (FIG. 11B).
# Cultured cells were harvested, washed with PBS, flash frozen, and stored at −80 C. until analysis. Prior to LC-MS analysis, samples were placed on ice and re-suspended with methanol:acetonitrile:water (5:3:2, v/v/v) at a concentration of 2 million cells per ml. Suspensions were vortexed continuously for 30 min at 4° C. Insoluble material was removed by centrifugation at 10,000 g for 10 min at 4° C. and supernatants were isolated for metabolomics analysis by UHPLC-MS. This method was used for cholesterol precursors and free headgroups. […]
smiles,measurement,setting,value
"C=C(C)[C@@H]1CCC(C)=C[C@H]1c1c(O)cc(CCCCC)cc1O [CBD, cannabidiol]",FRAP kinetics (lateral diffusion of fluorescent cholesterol),[1],significantly reduced
same,labeled and total cholesterol,SK-N-BE(2) cells,decrease
same,total and isotopically-labeled levels of cholesterol precursors,SK-N-BE(2) cells,accumulate

# — patent US20210244686A1, “Novel Systems And Methods For The Therapeutic Use of Cannabinoids or Cannabinoid Analogs to Increase The Lipid Order of Cholesterol Containing Cell Membranes” (The Regents of the University of Colorado a body corporate, priority 2018, published 2021)
